The values below come from publication PMC9241695, “Selective Metal Chelation by a Thiosemicarbazone Derivative Interferes with Mitochondrial Respiration and Ribosome Biogenesis in Candida albicans” (Microbiology Spectrum, 2022).

≈ marks a conversion by molar mass, not a printed value.

In one assay the test system is A. fumigatus AF293. The assay is described as follows: Antifungal susceptibility testing, microbroth dilution MIC. The class given is cell-based. The conditions noted are these: Aspergillus fumigatus, AF293, 48 h, read-out: MIC (μg/mL) against fungi AF293. An excerpt:
(§1) Compound library. The thiosemicarbazone derivatives Triapine and COTI-2 were purchased from Med Chem Express (MCE). The other 87 thiosemicarbazones used in this study were previously synthesized by our collaborators (1, 2). Their structures are shown in Table 1 and Table S1 to help the reader clearly understand the relationship between structure and activity.
(§2) Strains and culture conditions. Clinically derived C. albicans isolates, including G5, F5, and Gu5, were kindly provided by Professor Joachim Morschhäuser of the University of Würzburg. Other clinical C. albicans isolates were kindly donated by Professor Qingguo Qi of Shandong University and Qianfoshan Hospital of Shandong Province Other Candida strains were obtained from Jinan Central Hospital.
(§3) The zap1 mutant and its complemented strain were kindly provided by Professor Aaron P. Mitchell of Carnegie Mellon University (3). The C. neoformans strains used in this study was kindly donated by Professor Guojian Liao of Southwest University and A. fumigatus strain used in this study was provided by Professor Ling Lu of Nanjing Normal University. […]
(§4) Antifungal susceptibility testing. To determine in vitro antifungal activities, the microbroth dilution method was carried out in RPMI1640 medium according to the guidelines of the Clinical and Laboratory Standards Institute (4, 5). The initial concentration in RPMI1640 medium was 1 × 10^3 CFU/mL for the C. albicans and C. neoformans suspensions but 1 × 10^4 CFU/mL for A. fumigatus. The range of final drug concentrations was 0.0156–64 μg/mL. The plates were incubated at35°C for 24 […]
(§5) h (for C. albicans, C. krusei, C. tropicalis, C. parapsilosis) or 48 h (for C. neoformans, A. fumigatus). The MIC was determined based on visible growth inhibition compared with the control. All experiments were performed in duplicate. […]
(Dilution methods test growth across graded concentrations, often in twofold steps.)

The next assay has as its system C. neoformans H99. Described as above. The assay is classed as cell-based. The conditions noted are these: Cryptococcus neoformans, H99, 48 h, read-out: MIC (μg/mL) against fungi H99.
Source text: as §1, §2, §3, §4, §5

In assay [1] the test system is C. albicans SC5314. The description is as above. The class given is cell-based. Conditions: Candida albicans, SC5314, 24 h, read-out: MIC (μg/mL) against fungi SC5314.
Source text: as §1, §2
The zap1 mutant and its complemented strain were kindly provided by Professor Aaron P. Mitchell of Carnegie Mellon University (3). The C. neoformans strains used in this study was kindly donated by Professor Guojian Liao of Southwest University and A. fumigatus strain used in this study was provided by Professor Ling Lu of Nanjing Normal University. Before in vitro and in vivo experiments, all C. albicans strains were grown on YPD agar plates. After culturing at 30°C for 24 h, colonies of each strain were cultured in liquid YPD medium at 30°C with continuous shaking […]
as §4, §5

Assay [2] relates to C. albicans SC5314. In words: qPCR of genes associated with ribosome biogenesis. The class given is cell-based, Candida albicans. The conditions noted are these: CPX 0.5 or 2 μg/mL 8 h; DFO 64 µg/mL 6 h; TPEN 0.05 or 0.2 μg/mL 6 h. How it is done: Determination of SOD activity. SOD activity was measured using the Superoxide Dismutase Activity Assay Kit (Njjcbio, Nanjing, China) following the manufacturer's instructions. An overnight culture of C. albicans SC5314 was adjusted to 1 × 10^7 cells/mL with RPMI1640 medium and treated with 19ak at a final concentration of 0, 0.125, 0.25, 0.5, or 1 μg/mL for 6 h. After collection by centrifugation, the cells were broken by glass beads in extraction buffer and centrifuged at 4°C. The absorbance of the supernatant of each sample was measured with a microplate reader at450 nm.
Determination of catalase (CAT) activity. CAT activity was measured by using a Catalase Assay Kit (Solarbio, Beijing, China) following the manufacturer's instructions. An overnight culture of C. albicans SC5314 was adjusted to 1 × 10^6 cells/mL with RPMI1640 medium and treated as described above for SOD activity.
The decomposition of H2O2 is directly accompanied by a decrease in absorbance at 240 nm, and the difference in absorbance per unit time (ΔA240) is a measure of […]
Quantitative real-time polymerase chain reaction (qPCR) analysis. C. albicans SC5314 cells (1 × 10^6 cells/mL) were incubated with or without 19ak (0.5,2 […]
Total RNA was extracted using the hot phenol method, and the RNA quality was analyzed using a spectrophotometer (Eppendorf, Hamburg, Germany). The RNA was converted to cDNA using a cDNA Reverse
Transcription kit (Accurate Biotechnology, Hunan, China). PCR detection based on SYBR Green was performed on an Eppendorf real-time PCR system (Eppendorf, […]
Drug resistance study. Drug resistance studies were carried out by repeatedly treating C. albicans with an antifungal agent followed by MIC determination using […]

For the compound `COc1ccc(NC(=S)N/N=C(\C)c2ccccn2)cc1` [Compound 19s], the MIC with A. fumigatus AF293 came out at 8 µg/mL (≈ 26.6 µM); in the assay on C. neoformans H99, 0.25 µg/mL (≈ 0.832 µM); in the assay on C. albicans SC5314 [1], 2 µg/mL (≈ 6.66 µM).
The corresponding values for `CCC/C(=N\NC(=S)Nc1ccccc1Br)c1ccccn1` [Compound 19v] are 4 µg/mL (≈ 10.6 µM), 0.25 µg/mL (≈ 0.663 µM) and 1 µg/mL (≈ 2.65 µM).
The corresponding values for `S=C(N/N=C/c1ccccn1)N1CCOCC1` [Compound 19ao] are 8 µg/mL (≈ 32 µM), 0.5 µg/mL (≈ 2 µM) and 2 µg/mL (≈ 7.99 µM).
In the case of `S=C(N/N=C(\c1ccccc1)c1ccccn1)Nc1ccccc1Br` [Compound 19x], the MIC stood at 16 µg/mL (≈ 38.9 µM) in the assay with A. fumigatus AF293, 0.5 µg/mL (≈ 1.22 µM) with C. neoformans H99 and 1 µg/mL (≈ 2.43 µM) in the assay on C. albicans SC5314 [1].
With `Cc1cc(C2CCCCC2)n(O)c(=O)c1` [CPX, ciclopirox olamine], the “Expression of genes associated with ribosome biogenesis (qPCR)” value with C. albicans SC5314 [2] is given as “no obvious effect”.
`C/C(=N\NC(=S)Nc1ccccc1Br)c1ccccn1` [Compound 19r]: the results for the MIC in the assay with A. fumigatus AF293, in the assay with C. neoformans H99 and in the assay on C. albicans SC5314 [1] were 8 µg/mL (≈ 22.9 µM), 8 µg/mL (≈ 22.9 µM) and 1 µg/mL (≈ 2.86 µM), respectively.
For `C/C(=N\NC(=S)Nc1cccc(Br)c1)c1ccccn1` [Compound 19q], the figures for the MIC in the assay with A. fumigatus AF293, in the assay on C. neoformans H99 and in the assay on C. albicans SC5314 [1] were 1 µg/mL (≈ 2.86 µM), 0.25 µg/mL (≈ 0.716 µM) and 0.5 µg/mL (≈ 1.43 µM), respectively.
